Assay results: ChEMBL document CHEMBL4402572, “Development of Benzenesulfonamide Derivatives as Potent Glutathione Transferase Omega-1 Inhibitors” (J Med Chem, 2020)
≈ marks a conversion by molar mass, not a printed value.

Assays:
[1] = molecular target: T1, Glutathione S-transferase omega-1 (Homo sapiens, UniProt P78417); test: Inhibition of recombinant GSTO1-1 (unknown origin) expressed in Escherichia coli using S-(4-nitrophenacyl)glutathione as substrate preincubated for 2 mins followed by substrate addition by 4-NPG assay
T1 sequence (P78417 whole entry): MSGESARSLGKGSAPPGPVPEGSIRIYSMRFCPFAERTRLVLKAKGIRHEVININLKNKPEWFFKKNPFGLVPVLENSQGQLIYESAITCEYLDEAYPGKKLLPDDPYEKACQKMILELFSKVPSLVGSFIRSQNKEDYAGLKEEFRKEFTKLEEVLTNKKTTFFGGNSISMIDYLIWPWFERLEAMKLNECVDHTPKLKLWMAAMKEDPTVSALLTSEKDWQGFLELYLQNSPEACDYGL

[2] = Half life in mouse liver microsomes at 1 uM incubated for 60 mins in presence of NADPH by UPLC-MS analysis; type: ADME, Microsome
[3] = Kinetic solubility of compound in pH 7.4 phosphate buffer solution after 30 mins by nephelometry; type: physicochemical; conditions: read-out: Kinetic_solubility
[4] = Stability in mouse liver microsomes assessed as drug degradation at 1 uM incubated for 60 mins in absence of NADPH by UPLC-MS analysis; type: ADME, Microsome; conditions: 1 h
[5] = Half life in human liver microsomes at 1 uM incubated for 60 mins in presence of NADPH by UPLC-MS analysis; type: ADME, Microsome
[6] = molecular target: T2, Glutathione S-transferase omega-1 (Mus musculus) (UniProt O09131); test: Inhibition of GSTO1-1 in mouse bone marrow derived macrophage cells assessed as reduction in LPS-induced IL-1beta release by measuring IL1 beta level at 5 uM pretreated with LPS for 3 hrs followed by compound addition and measured after 1 hr by ELISA relative to control; set-up: scale not given: the % may be the effect or the level left
T2 sequence (whole entry): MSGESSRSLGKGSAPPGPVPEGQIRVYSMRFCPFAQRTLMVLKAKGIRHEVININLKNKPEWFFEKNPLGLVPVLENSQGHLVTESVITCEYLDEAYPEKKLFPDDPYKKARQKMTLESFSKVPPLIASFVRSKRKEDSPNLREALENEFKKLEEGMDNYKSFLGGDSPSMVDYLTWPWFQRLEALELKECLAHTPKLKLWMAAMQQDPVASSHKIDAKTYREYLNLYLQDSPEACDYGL

[7] = Stability in human liver microsomes assessed as drug degradation at 1 uM incubated for 60 mins in absence of NADPH by UPLC-MS analysis; type: ADME, Microsome; conditions: 1 h
[8] = Drug concentration in Swiss mouse plasma at 30 mg/kg, ip measured at 1 hr post dose by UPLC-MS analysis; type: ADME, organism-based
[9] = Cmax in Swiss mouse at 30 […], ip measured at 5 mins post dose by UPLC-MS analysis; type: ADME, organism-based; set-up: route intraperitoneal; conditions: in vivo
[10] = Kinetic solubility of compound in water after 30 mins by nephelometry; type: physicochemical; conditions: read-out: Kinetic_solubility
[11] = molecular target: T3, Glutathione S-transferase omega-1 (Homo sapiens) (UniProt P78417)
T3 sequence (whole entry): T1 sequence (P78417 whole entry)
Description: Inhibition of recombinant GSTO1-1 (unknown origin) expressed in Escherichia coli assessed as Kinact using S-(4-nitrophenacyl)glutathione as substrate preincubated for 1 to 6 mins followed by substrate addition by spectrophotmetric analysis

[12] = molecular target: T1, Glutathione S-transferase omega-1; test: Inhibition of recombinant GSTO1-1 (unknown origin) expressed in Escherichia coli assessed as inhibitor constant using S-(4-nitrophenacyl)glutathione as substrate preincubated for 1 to 6 mins followed by substrate addition by spectrophotmetric analysis
[13] = Drug level in Swiss mouse plasma at 30 mg/kg, ip after 5 mins by UPLC-MS analysis; type: ADME, organism-based
[14] = Drug concentration in Swiss mouse plasma at 30 mg/kg, ip measured up to 2 hrs post dose by UPLC-MS analysis; type: ADME, organism-based
[15] = Drug concentration in Swiss mouse plasma at 30 mg/kg, ip measured up to 4 hrs post dose by UPLC-MS analysis; type: ADME, organism-based
[16] = Half life in Swiss mouse at 30 mg/kg, ip after 0.083 to 24 hrs by UPLC-MS analysis; type: ADME, organism-based; conditions: in vivo

Compound `CC(=O)C(=O)Nc1ccc(Cl)c(S(=O)(=O)N(C)C)c1` has an IC50 [1] of over 10 µM.

Work on `CN(C)S(=O)(=O)c1cc(CC2CO2)ccc1Cl` (stereo not given) yielded an IC50 [1] of over 100 µM.

With `C/C=C/C(=O)Nc1ccc(Cl)c(S(=O)(=O)N(C)C)c1` the IC50 [1] was over 100 µM.

With `CN(C)S(=O)(=O)c1cc(NC(=O)CCl)ccc1Br` the IC50 [1] was 0.15 µM.

`O=C(CCl)Nc1ccc(Cl)c(S(=O)(=O)NCCO)c1` gave an IC50 [1] of 0.7 µM.

With `CN(C)S(=O)(=O)c1cc(NC(=O)CCl)ccc1Cl` the half-life at 1 µM [2] was 7 min, the solubility kinetic at 0.5 h [3] was 50 to 100 µg/mL (≈ 161 to 321 µM) and the Stability [4] was “Unstable”. For the same compound, the half-life at 1 µM [5] was under 2 min, the Activity [6] was 66.8% and the Stability [7] was “Unstable”. For the same compound, the concentration at 1 h [8] was 32.1 nM, the Cmax [9] was 9380 nM and the solubility kinetic at 0.5 h [10] was 50 to 100 µg/mL (≈ 161 to 321 µM).

Compound `CNS(=O)(=O)c1cc(NC(=O)CCl)ccc1Cl` has an IC50 [1] of 0.58 µM.

For `O=C(CCl)Nc1ccc(Cl)c(S(=O)(=O)NC2CCOC2)c1` (stereo not given), the IC50 [1] was 0.34 µM.

`CN(C)S(=O)(=O)c1cc(NC(=O)C(N)=O)ccc1Cl` gave an IC50 [1] of over 1000 µM.

For `CN(C)S(=O)(=O)c1cc(NC(=O)CCCl)ccc1Cl`, the IC50 [1] was over 10 µM.

Compound `O=C(CCl)Nc1ccc(Cl)c(S(=O)(=O)N2CCOCC2)c1` has a Kinact [11] of 8.1 min⁻¹, a Ki [12] of 6.7 µM and an IC50 [1] of 0.16 µM. The Activity [6] was 24.3%, the concentration at 5 min [13] was 3870 nM and the concentration at 1 h [8] was 7.1 nM.

In the case of `CN(C)S(=O)(=O)c1cc(CCCS(=O)(=O)F)ccc1Cl`, the IC50 [1] is reported as 3.2 µM.

In the case of `CN(C)S(=O)(=O)c1cc(NC(=O)CCl)ccc1C(F)(F)F`, the Kinact [11] is reported as 1.1 min⁻¹, the Ki [12] is reported as 1.2 µM and the IC50 [1] is reported as 0.06 µM. It also gave an Activity [6] of 27.5%, a concentration at 2 h [14] of 1.5 nM and a concentration at 5 min [13] of 11600 nM.

For `CN(C)S(=O)(=O)c1cc(/C=C/S(=O)(=O)F)ccc1Cl`, the IC50 [1] was over 10 µM.

`COCCCNS(=O)(=O)c1cc(NC(=O)CCl)ccc1Cl` gave a Kinact [11] of 1.3 min⁻¹, a Ki [12] of 9.9 µM and an IC50 [1] of 0.11 µM.

For `O=C(CCl)Nc1ccc(C(F)(F)F)c(S(=O)(=O)N2CCOCC2)c1`, the Kinact [11] was 0.85 min⁻¹, the Ki [12] was 0.61 µM and the IC50 [1] was 0.25 µM. For the same compound, the concentration at 4 h [15] was 6.5 nM, the Activity [6] was 3.4% and the half-life [16] was 84 min. The Cmax [9] was 6370 nM.

In the case of `CN(C)S(=O)(=O)c1cc(C2CO2)ccc1Cl` (stereo not given), the Kinact [11] is reported as 0.47 min⁻¹, the Ki [12] is reported as 5 µM and the IC50 [1] is reported as 1.2 µM. The Activity [6] was 43.7%.

In the case of `CN(C)S(=O)(=O)c1cc(NC(=O)CCl)ccc1OC(F)(F)F`, the IC50 [1] is reported as 0.21 µM.

With `COCCNS(=O)(=O)c1cc(NC(=O)CCl)ccc1Cl` the Kinact [11] was 0.8 min⁻¹, the Ki [12] was 2.5 µM and the IC50 [1] was 0.03 µM. For the same compound, the Activity [6] was 47.8%.

`CN(C)S(=O)(=O)c1cc(NC(=O)CCl)ccc1-c1ccccc1` gave an IC50 [1] of 0.71 µM.

In the case of `CN(C)S(=O)(=O)c1cc(NC(=O)CF)ccc1Cl`, the IC50 [1] is reported as over 100 µM.

`C=CC(=O)Nc1ccc(Cl)c(S(=O)(=O)N(C)C)c1` gave an Activity [6] of 92.8%.

`CC(Cl)C(=O)Nc1ccc(Cl)c(S(=O)(=O)N(C)C)c1` (stereo not given) showed an IC50 [1] of over 10 µM.

In the case of `CN(CCO)S(=O)(=O)c1cc(NC(=O)CCl)ccc1Cl`, the IC50 [1] is reported as 0.18 µM.

In the case of `O=C(CCl)Nc1ccc(Cl)c(S(=O)(=O)NCC2CCCO2)c1` (stereo not given), the IC50 [1] is reported as 0.2 µM.

`CN(C)S(=O)(=O)c1cc(NC(=O)CC#N)ccc1Cl` showed an IC50 [1] of over 100 µM.

`CN(C)S(=O)(=O)c1cc(CCS(=O)(=O)F)ccc1Cl` showed an IC50 [1] of over 10 µM.

In the case of `COCCCN(C)S(=O)(=O)c1cc(NC(=O)CCl)ccc1Cl`, the IC50 [1] is reported as 0.16 µM and the Activity [6] is reported as 41.5%.

Work on `CN(C)S(=O)(=O)c1cc(CS(=O)(=O)F)ccc1Cl` yielded a Kinact [11] of 2.3 min⁻¹, a Ki [12] of 9.6 µM and an IC50 [1] of 0.8 µM. It also gave an Activity [6] of 39.8%.

With `CC(C)NS(=O)(=O)c1cc(NC(=O)CCl)ccc1Cl` the Kinact [11] was 3 min⁻¹, the Ki [12] was 4.8 µM and the IC50 [1] was 0.07 µM. It also gave an Activity [6] of 36%.

Compound `CN(C)S(=O)(=O)c1cc(NCC#N)ccc1Cl` has an IC50 [1] of over 100 µM.

For `COCCN(C)S(=O)(=O)c1cc(NC(=O)CCl)ccc1Cl`, the Kinact [11] was 0.61 min⁻¹, the Ki [12] was 6.9 µM and the IC50 [1] was 0.08 µM. It also gave an Activity [6] of 61.3%.

With `CN(C)S(=O)(=O)c1cc(NC(=O)CCl)ccc1I` the IC50 [1] was 0.13 µM.
